From ChEMBL document CHEMBL1149964, “The structure of MK-571 (form I) at 170 K and conformational analysis by molecular modeling” (Bioorg Med Chem Lett, 1992)

Legend:
[1] = target: T1, Cysteinyl leukotriene receptor 1 (Homo sapiens) (UniProt Q9Y271); test: In vitro antagonistic activity against leukotriene D4 receptor; A - Active; type: functional; conditions: filed as antagonist
T1 sequence (whole entry): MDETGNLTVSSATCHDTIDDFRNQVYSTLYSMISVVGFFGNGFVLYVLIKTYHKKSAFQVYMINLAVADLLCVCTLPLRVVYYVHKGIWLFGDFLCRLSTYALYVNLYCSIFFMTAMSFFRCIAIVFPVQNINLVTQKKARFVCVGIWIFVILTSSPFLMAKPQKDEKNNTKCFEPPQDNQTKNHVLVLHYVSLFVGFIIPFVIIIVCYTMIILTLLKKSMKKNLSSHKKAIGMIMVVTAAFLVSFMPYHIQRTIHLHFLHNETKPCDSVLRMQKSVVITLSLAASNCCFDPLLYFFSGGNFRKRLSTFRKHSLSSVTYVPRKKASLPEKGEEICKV

[2] = target: T1, Cysteinyl leukotriene receptor 1 (Homo sapiens); test: In vivo antagonistic activity against leukotriene D4 receptor; A - Active; type: functional, organism-based; conditions: filed as antagonist

In the case of `CN(C)C(=O)CCSC(SCCC(=O)O)c1cccc(/C=C/c2ccc3ccc(Cl)cc3n2)c1` (centres undefined), the Activity [1] is reported as “Antagonist” and the Activity [2] is reported as “Antagonist”.
For `CN(C)C(=O)CCS[C@H](SCCC(=O)O)c1cccc(/C=C/c2ccc3ccc(Cl)cc3n2)c1`, the Activity [1] was “Antagonist” and the Activity [2] was “Antagonist”.
